Source: patent publication US11357779B2 (G1 Therapeutics, Inc., priority 2018, dated 2022)
Read-outs that look alike come from different tables or passages of the source.

Assay: Plasma concentration versus time of Compound I and metabolite Compound III in patients dosed QD or BID with Form B of Compound II plus fulvestrant
Format: in vivo, human
Settings: human, plasma, oral; for concentration at 8 h: Day 1, 8.0 h; for concentration at 10 h: Day 1, 10.0 h; for concentration at 12 h: Day 1, 12.0 h; for concentration at 8 day: Day 8; for concentration at 15 day: Day 15; for concentration at 22 day: Day 22
Source text: Patients were enrolled into 1 of 2 parallel, independently operating, dose-escalation dosing cohorts with Form B of Compound II administered continuously either once daily (QD) or twice daily (BID) with food with fixed-dose fulvestrant (intramuscularly every 14 days for the first three injections and then every 28 days). Pre- or perimenopausal patients also received goserelin for the duration of study treatment. A […] agonist was started at least 28 days before the first dose of Form B, and those patients who were taking another LHRH agonist were switched to goserelin on Day 1. Patients were split into […] cohorts providing once a day (QD) dosing of 200 mg, 300 mg, 400 mg, 500 mg, or 650 mg of Form B, or twice a day (BID) dosing of 100 mg, 150 mg, or 200 mg of Form B. The second dose in BID cohorts was not administered in the evening until at least 12 hours after the initial morning dose of Form B. The dosing cohorts for Form B of Compound II are provided in Table 1.
Blood samples were collected at the following time points relative to the morning dose of Form B at Day 1 and at Day 29: pre-dose (0 hour) and 1, 2, 3, 4, 6, 8, 10, 12 (prior to the evening dose in the BID cohorts), and 24 (prior to the next day's morning dose) hours after dosing. A 5-minute time window was allowed for samples collected between the predose and 3 hours after Form B dosing. A 15-minute window was allowed for samples collected between 4 to 12 hours after Form B dosing. A 1-hour window was allowed for the sample collected 24 hours after Form B dosing. Blood samples for Compound I PK trough levels were collected pre-dose at Day 8, Day 15, and Day 22 prior to the morning administration of Compound I. Plasma concentrations of Compound I and its metabolite, Compound III, were measured using validated methods.
Analysis of plasma concentration versus time data for calculation of standard pharmacokinetic (PK) parameters following oral administration was conducted using Phoenix WinNonlin version 6.3 using actual blood sampling times.

[1] = 100 mg, 100 mg BID of Form B, Mean, read-out: Compound III Concentration
[2] = 100 mg, 100 mg BID of Form B, Median, read-out: Compound III Concentration
[3] = 100 mg, Cohort 6, 100 mg BID of Form B, read-out: Trough Compound III Concentration, Median
[4] = 100 mg, Cohort 6, 100 mg BID of Form B, read-out: Trough Compound III Concentration, Min
[5] = 400 mg, Cohort 3, 400 mg QD of Form B, read-out: Trough Compound III Concentration, Max
[6] = 400 mg, Cohort 3, 400 mg QD of Form B, read-out: Trough Compound III Concentration, Mean
[7] = 400 mg, Cohort 3, 400 mg QD of Form B, read-out: Trough Compound III Concentration, Median
[8] = 500 mg, Cohort 4, 500 mg QD of Form B, read-out: Trough Compound III Concentration, Max
[9] = 500 mg, Cohort 4, 500 mg QD of Form B, read-out: Trough Compound III Concentration, Mean
[10] = 500 mg, Cohort 4, 500 mg QD of Form B, read-out: Trough Compound III Concentration, Median
[11] = 500 mg, Cohort 4, 500 mg QD of Form B, read-out: Trough Compound III Concentration, Min

With O=C1NCC2(CCCCC2)n2c1cc1cnc(Nc3ccc(N4CCNCC4)cn3)nc12 [Compound III, 2′-((5-(piperazin-1-yl)pyridin-2-yl)amino)-7′,8′-dihydro-6′H-spiro[cyclohexane-1,9′-pyrazino[1′,2′:1,5]pyrrolo[2,3-d]pyrimidin]-6′-one] the concentration at 0 h (100 mg, 100 mg BID of Form B, Day 1, 0.0 h, Mean, read-out: Compound III Concentration) was 0 ng/mL, the concentration at 0 h (100 mg, 100 mg BID of Form B, Day 1, 0.0 h, Median, read-out: Compound III Concentration) was 0 ng/mL and the concentration at 1 h (100 mg, 100 mg BID of Form B, Day 1, 1.0 h, Mean, read-out: Compound III Concentration) was 0.248 ng/mL. The concentration at 1 h (100 mg, 100 mg BID of Form B, Day 1, 1.0 h, Median, read-out: Compound III Concentration) was 0 ng/mL, the concentration at 2 h (100 mg, 100 mg BID of Form B, Day 1, 2.0 h, Mean, read-out: Compound III Concentration) was 1.04 ng/mL and the concentration at 2 h (100 mg, 100 mg BID of Form B, Day 1, 2.0 h, Median, read-out: Compound III Concentration) was 1 ng/mL. For the same molecule, the concentration at 3 h (100 mg, 100 mg BID of Form B, Day 1, 3.0 h, Mean, read-out: Compound III Concentration) was 1.41 ng/mL, the concentration at 3 h (100 mg, 100 mg BID of Form B, Day 1, 3.0 h, Median, read-out: Compound III Concentration) was 1.42 ng/mL and the concentration at 4 h (100 mg, 100 mg BID of Form B, Day 1, 4.0 h, Mean, read-out: Compound III Concentration) was 1.25 ng/mL. The concentration at 4 h (100 mg, 100 mg BID of Form B, Day 1, 4.0 h, Median, read-out: Compound III Concentration) was 1.13 ng/mL, the concentration at 6 h (100 mg, 100 mg BID of Form B, Day 1, 6.0 h, Mean, read-out: Compound III Concentration) was 0.471 ng/mL and the concentration at 6 h (100 mg, 100 mg BID of Form B, Day 1, 6.0 h, Median, read-out: Compound III Concentration) was 0.382 ng/mL. For the same molecule, the concentration at 8 h [1] was 0.219 ng/mL, the concentration at 8 h [2] was 0 ng/mL and the concentration at 10 h [1] was 0 ng/mL. For the same molecule, the concentration at 10 h [2] was 0 ng/mL, the concentration at 12 h [1] was 0.0917 ng/mL and the concentration at 12 h [2] was 0 ng/mL. For the same molecule, the concentration at 8 day [3] was 0.481 ng/mL, the concentration at 8 day [4] was 0 ng/mL and the concentration at 15 day [3] was 0.895 ng/mL. It also gave a concentration at 15 day [4] of 0 ng/mL, a concentration at 22 day [3] of 0.403 ng/mL and a concentration at 22 day [4] of 0 ng/mL. For the same molecule, the concentration at 0 h (150 mg, 150 mg BID of Form B, Day 1, 0.0 h, Median, read-out: Compound III Concentration) was 0 ng/mL, the concentration at 1 h (150 mg, 150 mg BID of Form B, Day 1, 1.0 h, Median, read-out: Compound III Concentration) was 1.52 ng/mL and the concentration at 8 day [5] was 0.702 ng/mL. It also gave a concentration at 8 day [6] of 0.406 ng/mL, a concentration at 8 day [7] of 0.515 ng/mL and a concentration at 15 day [5] of 0.665 ng/mL. The concentration at 15 day [6] was 0.435 ng/mL, the concentration at 15 day [7] was 0.64 ng/mL and the concentration at 22 day [5] was 0.935 ng/mL. The concentration at 22 day [6] was 0.729 ng/mL, the concentration at 22 day [7] was 0.736 ng/mL and the concentration at 22 day (400 mg, Cohort 3, 400 mg QD of Form B, read-out: Trough Compound III Concentration, Min) was 0.515 ng/mL. For the same molecule, the concentration at 8 day [8] was 1.98 ng/mL, the concentration at 8 day [9] was 1.71 ng/mL and the concentration at 8 day [10] was 1.62 ng/mL. It also gave a concentration at 8 day [11] of 1.53 ng/mL, a concentration at 15 day [8] of 2.66 ng/mL and a concentration at 15 day [9] of 2.07 ng/mL. The concentration at 15 day [10] was 2.15 ng/mL, the concentration at 15 day [11] was 1.33 ng/mL and the concentration at 22 day [8] was 2.11 ng/mL. It also gave a concentration at 22 day [9] of 1.73 ng/mL, a concentration at 22 day [10] of 1.58 ng/mL and a concentration at 22 day [11] of 1.5 ng/mL. It also gave a concentration at 0 h (500 mg, Cohort 4, 500 mg QD of Form B, Day 29, 0.0 h, read-out: Compound III Concentration, Mean) of 1.76 ng/mL, a concentration at 0 h (500 mg, Cohort 4, 500 mg QD of Form B, Day 29, 0.0 h, read-out: Compound III Concentration, Min) of 1.41 ng/mL and a concentration at 1 h (500 mg, Cohort 4, 500 mg QD of Form B, Day 29, 1.0 h, read-out: Compound III Concentration, Mean) of 2.98 ng/mL. It also gave a concentration at 1 h (500 mg, Cohort 4, 500 mg QD of Form B, Day 29, 1.0 h, read-out: Compound III Concentration, Min) of 2.06 ng/mL, a concentration at 2 h (500 mg, Cohort 4, 500 mg QD of Form B, Day 29, 2.0 h, read-out: Compound III Concentration, Mean) of 4.39 ng/mL and a concentration at 2 h (500 mg, Cohort 4, 500 mg QD of Form B, Day 29, 2.0 h, read-out: Compound III Concentration, Min) of 3.61 ng/mL. It also gave a concentration at 3 h (500 mg, Cohort 4, 500 mg QD of Form B, Day 29, 3.0 h, read-out: Compound III Concentration, Mean) of 5.9 ng/mL, a concentration at 3 h (500 mg, Cohort 4, 500 mg QD of Form B, Day 29, 3.0 h, read-out: Compound III Concentration, Min) of 4.66 ng/mL and a concentration at 4 h (500 mg, Cohort 4, 500 mg QD of Form B, Day 29, 4.0 h, read-out: Compound III Concentration, Mean) of 5.77 ng/mL. For the same molecule, the concentration at 4 h (500 mg, Cohort 4, 500 mg QD of Form B, Day 29, 4.0 h, read-out: Compound III Concentration, Min) was 4.04 ng/mL, the concentration at 6 h (500 mg, Cohort 4, 500 mg QD of Form B, Day 29, 6.0 h, read-out: Compound III Concentration, Mean) was 4.18 ng/mL and the concentration at 6 h (500 mg, Cohort 4, 500 mg QD of Form B, Day 29, 6.0 h, read-out: Compound III Concentration, Min) was 3.55 ng/mL.
